Laboratory results as given in US8119692B2 (priority 2007, dated 2012).
pKi: −log10 of the molar value.

Biological target: Lethal factor protease (Bacillus anthracis, UniProt P15917)
Assay: biochemical
Conditions: LF (FRET) Ki^app

Lethal factor protease, sequence (P15917 34-809 limits assumed): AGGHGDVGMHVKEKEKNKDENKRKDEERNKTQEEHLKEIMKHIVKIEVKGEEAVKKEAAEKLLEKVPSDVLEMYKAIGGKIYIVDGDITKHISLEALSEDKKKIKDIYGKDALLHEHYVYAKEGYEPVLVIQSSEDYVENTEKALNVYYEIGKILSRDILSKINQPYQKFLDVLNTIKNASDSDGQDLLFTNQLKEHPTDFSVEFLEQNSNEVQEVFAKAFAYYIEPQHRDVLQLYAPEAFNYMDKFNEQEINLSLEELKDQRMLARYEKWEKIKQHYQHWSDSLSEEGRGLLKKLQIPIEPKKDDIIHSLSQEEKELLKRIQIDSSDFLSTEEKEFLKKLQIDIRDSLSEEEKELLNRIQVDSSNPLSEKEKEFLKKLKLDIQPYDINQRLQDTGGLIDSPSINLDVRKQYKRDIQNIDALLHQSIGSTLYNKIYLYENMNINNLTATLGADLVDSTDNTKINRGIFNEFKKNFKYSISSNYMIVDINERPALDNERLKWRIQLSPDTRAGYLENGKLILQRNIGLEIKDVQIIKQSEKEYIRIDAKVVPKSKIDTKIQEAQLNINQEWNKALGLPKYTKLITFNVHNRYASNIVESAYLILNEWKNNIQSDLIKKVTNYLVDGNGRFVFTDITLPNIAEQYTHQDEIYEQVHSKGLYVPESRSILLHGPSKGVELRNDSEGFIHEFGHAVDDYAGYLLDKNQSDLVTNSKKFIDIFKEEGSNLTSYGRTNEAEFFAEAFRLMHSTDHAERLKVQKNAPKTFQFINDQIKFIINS

CO[C@H](C[C@H](CCN1CCC[C@H](CN2CCCCC2)C1)C(=O)NO)c1ccc(F)cc1 [Compound 168044, (2S,4R)-4-(4-fluorophenyl)-N-hydroxy-4-methoxy-2-(2-((R)-3-(piperidin-1-ylmethyl)piperidin-1-yl)ethyl)butanamide]
pKi: 5.72

CO[C@H](C[C@H](CCN1CCC[C@@H](CN2CCCCC2)C1)C(=O)NO)c1ccc(F)cc1 [Compound 168045, (2S,4R)-4-(4-fluorophenyl)-N-hydroxy-4-methoxy-2-(2-((S)-3-(piperidin-1-ylmethyl)piperidin-1-yl)ethyl)butanamide]
pKi: 6.37

CO[C@H](C[C@H](CCN(C)CCN(C)c1ccccc1)C(=O)NO)c1ccc(F)cc1 [Compound 168058, (2S,4R)-4-(4-fluorophenyl)-N-hydroxy-4-methoxy-2-(2-(methyl(2-(methyl(phenyl)amino)ethyl)amino)ethyl)butanamide]
pKi: 6.11

CO[C@H](C[C@H](CCN1CCC[C@@H](CO)C1)C(=O)NO)c1ccc(F)cc1 [Compound 168059, (2S,4R)-4-(4-fluorophenyl)-N-hydroxy-2-(2-((R)-3-(hydroxymethyl)piperidin-1-yl)ethyl)-4-methoxybutanamide]
pKi: 6.22

CO[C@H](C[C@H](CCN(C)CCN(C)CCCc1ccccc1)C(=O)NO)c1ccc(F)cc1 [Compound 168082, (2S,4R)-4-(4-fluorophenyl)-N-hydroxy-4-methoxy-2-(2-(methyl(2-(methyl(3-phenylpropyl)amino)ethyl)amino)ethyl)butanamide]
pKi: 6.09

CO[C@H](C[C@H](CCCCNCc1ccc(F)c(C)c1)C(=O)NO)c1ccc(F)cc1 [Compound 168136, (S)-6-(4-fluoro-3-methylbenzylamino)-2-((R)-2-(4-fluorophenyl)-2-methoxyethyl)-N-hydroxyhexanamide]
pKi: 6.72

CO[C@H](C[C@H](CCCCN(C)Cc1ccc(F)cc1)C(=O)NO)c1ccc(F)cc1 [Compound 168138]
pKi: 6.41

CO[C@H](C[C@H](CCCCNCCc1ccc(F)cc1)C(=O)NO)c1ccc(F)cc1 [Compound 168221]
pKi: 6.55

CO[C@H](C[C@H](CCCCNCCCc1ccc(F)cc1)C(=O)NO)c1ccc(F)cc1 [Compound 168222, (S)-2-((R)-2-(4-fluorophenyl)-2-methoxyethyl)-6-(3-(4-fluorophenyl)propylamino)-N-hydroxyhexanamide]
pKi: 6.77

CO[C@H](C[C@H](CCCCNCc1cccs1)C(=O)NO)c1ccc(F)cc1 [Compound 168223]
pKi: 6.68

CO[C@H](C[C@H](CCCCNCc1ccc(Oc2ccccc2)cc1)C(=O)NO)c1ccc(F)cc1 [Compound 168224, (S)-2-((R)-2-(4-fluorophenyl)-2-methoxyethyl)-N-hydroxy-6-(4-phenoxybenzylamino)hexanamide]
pKi: 6.64

CO[C@H](C[C@H](CCCCN1CCN(Cc2ccccc2)CC1)C(=O)NO)c1ccc(F)cc1 [Compound 168226, (S)-6-(4-benzylpiperazin-1-yl)-2-((R)-2-(4-fluorophenyl)-2-methoxyethyl)-N-hydroxyhexanamide]
pKi: 6.24

CO[C@H](C[C@H](CCCCNCC1CCCCC1)C(=O)NO)c1ccc(F)cc1 [Compound 168227, (S)-6-(cyclohexylmethylamino)-2-((R)-2-(4-fluorophenyl)-2-methoxyethyl)-N-hydroxyhexanamide]
pKi: 6.16

CO[C@H](C[C@H](CCCCNCc1ccc(C)o1)C(=O)NO)c1ccc(F)cc1 [Compound 168228, (S)-2-((R)-2-(4-fluorophenyl)-2-methoxyethyl)-N-hydroxy-6-((5-methylfuran-2-yl)methylamino)hexanamide]
pKi: 5.55

CO[C@H](C[C@H](CCCCNc1ccc(F)cc1)C(=O)NO)c1ccc(F)cc1 [Compound 168229]
pKi: 5.55

CO[C@H](C[C@H](CCCCNCc1cccc(-c2ccc(F)cc2)c1)C(=O)NO)c1ccc(F)cc1 [Compound 168230, (S)-6-((4′-fluorobiphenyl-3-yl)methylamino)-2-((R)-2-(4-fluorophenyl)-2-methoxyethyl)-N-hydroxyhexanamide]
pKi: 6.35

CO[C@H](C[C@H](CCCCNCc1cc2ccccc2s1)C(=O)NO)c1ccc(F)cc1 [Compound 168231, (S)-6-(benzo[b]thiophen-2-ylmethylamino)-2-((R)-2-(4-fluorophenyl)-2-methoxyethyl)-N-hydroxyhexanamide]
pKi: 6.49
